{
  "source": "ChEMBL document CHEMBL5523716",
  "about": "“Discovery of novel EGFR-PROTACs capable of degradation of multiple EGFR-mutated proteins” (Eur J Med Chem, 2024)",
  "key": {"HCC827 [1]": {"system": "HCC827", "assay": "Antiproliferative activity against human HCC827 cells harboring EGFR Del19 mutant assessed as inhibition of cell growth incubated for 48 to 72 hrs by CCK-8 assay", "type": "functional, cell-based"}, "[2]": {"assay": "Antiproliferative activity against human H1975-TM cells harboring EGFR L858R/T790M/C797S mutant assessed as inhibition of cell growth incubated for 48 to 72 hrs by CCK-8 assay", "type": "functional, cell-based"}, "A-431": {"system": "A-431", "assay": "Antiproliferative activity against human A-431 cells harboring EGFR wild type assessed as inhibition of cell growth incubated for 48 to 72 hrs by CCK-8 assay", "type": "functional, cell-based"}, "[3]": {"assay": "Metabolic stability in monkey liver microsomes assessed as elimination rate constant at 1 uM incubated upto 60 mins in presence of NADPH by LC-MS/MS analysis", "type": "ADME, Macaca mulatta, Microsome", "conditions": "rhesus monkey"}, "[4]": {"assay": "Metabolic stability in mouse liver microsomes assessed as elimination rate constant at 1 uM incubated upto 60 mins in presence of NADPH by LC-MS/MS analysis", "type": "ADME, Microsome"}, "[5]": {"assay": "Metabolic stability in mouse liver microsomes assessed as half-life at 1 uM incubated upto 60 mins in presence of NADPH by LC-MS/MS analysis", "type": "ADME, Microsome"}, "[6]": {"assay": "Metabolic stability in human liver microsomes assessed as intrinsic clearance at 1 uM incubated upto 60 mins in presence of NADPH by LC-MS/MS analysis", "type": "ADME, Microsome", "conditions": "read-out: CLH"}, "[7]": {"assay": "Metabolic stability in dog liver microsomes assessed as intrinsic clearance at 1 uM incubated upto 60 mins in presence of NADPH by LC-MS/MS analysis", "type": "ADME, Canis lupus familiaris, Microsome", "conditions": "read-out: CLH"}, "[8]": {"assay": "Metabolic stability in mouse liver microsomes assessed as intrinsic clearance at 1 uM incubated upto 60 mins in presence of NADPH by LC-MS/MS analysis", "type": "ADME, Microsome", "conditions": "read-out: CLH"}, "[9]": {"assay": "Cmax in SPF ICR mouse at 2 mg/kg,iv measured upto 24 hrs by LC-MS/MS analysis", "type": "ADME, organism-based", "conditions": "in vivo"}, "[10]": {"assay": "Cmax in SPF ICR mouse at 5 mg/kg,ip measured upto 24 hrs by LC-MS/MS analysis", "type": "ADME, organism-based", "conditions": "in vivo"}, "[11]": {"assay": "AUC (0 to t) in SPF ICR mouse at 2 mg/kg,iv measured upto 24 hrs by LC-MS/MS analysis", "type": "ADME, organism-based", "conditions": "in vivo"}, "[12]": {"assay": "AUC (0 to t) in SPF ICR mouse at 5 mg/kg,ip measured upto 24 hrs by LC-MS/MS analysis", "type": "ADME, organism-based", "conditions": "in vivo"}, "[13]": {"assay": "MRT (0 to t) in SPF ICR mouse at 2 mg/kg,iv measured upto 24 hrs by LC-MS/MS analysis", "type": "ADME, organism-based", "conditions": "in vivo"}, "[14]": {"assay": "MRT (0 to t) in SPF ICR mouse at 5 mg/kg,ip measured upto 24 hrs by LC-MS/MS analysis", "type": "ADME, organism-based", "conditions": "in vivo"}, "[15]": {"biological_target": "von Hippel-Lindau disease tumor suppressor/Epidermal growth factor receptor (Homo sapiens, UniProt P00533+P40337)", "assay": "PROTAC activity at VHL/EGFR Del19 mutant in human HCC827 cells assessed as induction of EGFR degradation incubated for 72 hrs by Western blot analysis", "type": "cell-based"}, "[16]": {"biological_target": "von Hippel-Lindau disease tumor suppressor/Epidermal growth factor receptor (Homo sapiens, UniProt P00533+P40337, T790M/L858R)", "sequence (P00533 25-1210 T790M/L858R limits assumed, stated change not applied)": "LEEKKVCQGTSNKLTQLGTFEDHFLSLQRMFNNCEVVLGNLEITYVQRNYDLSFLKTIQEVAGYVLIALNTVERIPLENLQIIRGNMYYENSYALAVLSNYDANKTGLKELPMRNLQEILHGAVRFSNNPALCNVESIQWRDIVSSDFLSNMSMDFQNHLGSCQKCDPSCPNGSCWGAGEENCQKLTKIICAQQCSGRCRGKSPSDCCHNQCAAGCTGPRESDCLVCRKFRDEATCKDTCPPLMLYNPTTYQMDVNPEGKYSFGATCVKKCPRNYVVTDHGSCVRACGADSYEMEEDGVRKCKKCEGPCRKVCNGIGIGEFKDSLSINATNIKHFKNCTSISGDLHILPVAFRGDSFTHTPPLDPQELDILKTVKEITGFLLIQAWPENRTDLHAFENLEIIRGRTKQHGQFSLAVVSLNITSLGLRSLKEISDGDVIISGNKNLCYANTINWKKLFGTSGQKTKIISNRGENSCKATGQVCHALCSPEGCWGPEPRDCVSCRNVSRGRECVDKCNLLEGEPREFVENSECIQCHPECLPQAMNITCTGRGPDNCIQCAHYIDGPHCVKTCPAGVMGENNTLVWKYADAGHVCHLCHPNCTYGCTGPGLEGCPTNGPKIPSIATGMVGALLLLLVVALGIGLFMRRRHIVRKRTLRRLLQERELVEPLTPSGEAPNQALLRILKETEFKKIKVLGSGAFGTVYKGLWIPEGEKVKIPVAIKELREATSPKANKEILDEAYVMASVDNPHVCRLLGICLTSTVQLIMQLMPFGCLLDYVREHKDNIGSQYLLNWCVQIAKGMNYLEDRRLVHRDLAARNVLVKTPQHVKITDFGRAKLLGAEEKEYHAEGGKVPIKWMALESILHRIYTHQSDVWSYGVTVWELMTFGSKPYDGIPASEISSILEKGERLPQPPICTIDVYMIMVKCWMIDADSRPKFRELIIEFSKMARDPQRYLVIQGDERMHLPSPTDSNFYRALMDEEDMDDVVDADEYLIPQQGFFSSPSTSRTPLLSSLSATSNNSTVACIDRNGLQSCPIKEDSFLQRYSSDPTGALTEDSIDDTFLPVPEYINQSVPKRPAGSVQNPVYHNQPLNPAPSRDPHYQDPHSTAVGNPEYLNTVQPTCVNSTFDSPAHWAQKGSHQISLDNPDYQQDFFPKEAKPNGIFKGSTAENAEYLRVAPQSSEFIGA", "sequence (P40337 whole entry, stated change not applied)": "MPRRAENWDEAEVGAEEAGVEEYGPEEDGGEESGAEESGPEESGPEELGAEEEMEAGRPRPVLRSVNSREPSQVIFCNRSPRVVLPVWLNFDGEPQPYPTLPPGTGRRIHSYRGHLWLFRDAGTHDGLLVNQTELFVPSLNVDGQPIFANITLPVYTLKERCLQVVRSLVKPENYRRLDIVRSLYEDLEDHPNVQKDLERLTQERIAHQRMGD", "assay": "PROTAC activity at VHL/EGFR L858R/T790M mutant in human NCI-H1975 cells assessed as induction of EGFR degradation incubated for 72 hrs by Western blot analysis", "type": "cell-based"}, "[17]": {"system": "von Hippel-Lindau disease tumor suppressor/Epidermal growth factor receptor (Homo sapiens), P00533+P40337 [L858R,T790M]", "assay": "PROTAC activity at VHL/EGFR L858R/T790M mutant in human NCI-H1975 cells assessed as maximal EGFR degradation at 0.07 to 5 uM incubated for 72 hrs by Western blot analysis relative to control", "type": "cell-based", "conditions": "dose 0.07-5 µM"}, "[18]": {"biological_target": "von Hippel-Lindau disease tumor suppressor/Epidermal growth factor receptor (Homo sapiens, UniProt P00533+P40337, T790M/C797S/L858R)", "sequence (P00533 25-1210 T790M/C797S/L858R limits assumed, stated change not applied)": "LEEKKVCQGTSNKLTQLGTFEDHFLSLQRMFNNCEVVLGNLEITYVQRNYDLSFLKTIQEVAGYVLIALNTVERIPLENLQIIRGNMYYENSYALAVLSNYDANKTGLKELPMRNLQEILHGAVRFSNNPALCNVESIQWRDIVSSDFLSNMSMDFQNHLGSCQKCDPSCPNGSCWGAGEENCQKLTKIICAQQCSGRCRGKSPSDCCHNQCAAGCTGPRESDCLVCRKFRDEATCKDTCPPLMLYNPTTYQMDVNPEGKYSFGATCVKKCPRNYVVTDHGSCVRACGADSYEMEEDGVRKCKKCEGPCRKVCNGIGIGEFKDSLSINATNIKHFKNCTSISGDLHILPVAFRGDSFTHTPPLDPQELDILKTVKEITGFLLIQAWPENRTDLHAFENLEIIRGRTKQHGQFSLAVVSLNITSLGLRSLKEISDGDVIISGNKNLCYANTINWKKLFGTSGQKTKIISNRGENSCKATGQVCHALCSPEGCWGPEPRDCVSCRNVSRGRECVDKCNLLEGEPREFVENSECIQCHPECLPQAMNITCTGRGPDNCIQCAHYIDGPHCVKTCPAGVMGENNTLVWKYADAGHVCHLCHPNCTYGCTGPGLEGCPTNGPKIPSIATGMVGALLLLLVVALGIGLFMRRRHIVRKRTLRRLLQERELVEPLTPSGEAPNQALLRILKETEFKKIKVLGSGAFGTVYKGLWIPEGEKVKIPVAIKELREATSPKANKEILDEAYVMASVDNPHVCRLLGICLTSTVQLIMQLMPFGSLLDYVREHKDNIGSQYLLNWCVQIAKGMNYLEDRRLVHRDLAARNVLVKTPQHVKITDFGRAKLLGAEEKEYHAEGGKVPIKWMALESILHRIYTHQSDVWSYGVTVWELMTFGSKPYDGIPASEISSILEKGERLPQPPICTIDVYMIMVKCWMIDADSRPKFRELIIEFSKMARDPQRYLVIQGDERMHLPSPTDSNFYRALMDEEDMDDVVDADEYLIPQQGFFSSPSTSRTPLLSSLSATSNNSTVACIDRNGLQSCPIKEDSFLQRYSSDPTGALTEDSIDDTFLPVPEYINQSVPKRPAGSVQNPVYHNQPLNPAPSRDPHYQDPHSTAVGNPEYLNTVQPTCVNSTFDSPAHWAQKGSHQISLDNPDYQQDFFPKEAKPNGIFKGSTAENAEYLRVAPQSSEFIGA", "sequence (P40337 whole entry, stated change not applied)": "as the sequence (P40337 whole entry, stated change not applied) above", "assay": "PROTAC activity at VHL/EGFR L858R/T790M/C797S mutant in human H1975-TM cells assessed as induction of EGFR degradation incubated for 48 hrs by Western blot analysis", "type": "cell-based"}, "[19]": {"system": "von Hippel-Lindau disease tumor suppressor/Epidermal growth factor receptor (Homo sapiens), P00533+P40337 [UNDEFINED MUTATION]", "sequence (P00533 whole entry, looked up, stated change not applied)": "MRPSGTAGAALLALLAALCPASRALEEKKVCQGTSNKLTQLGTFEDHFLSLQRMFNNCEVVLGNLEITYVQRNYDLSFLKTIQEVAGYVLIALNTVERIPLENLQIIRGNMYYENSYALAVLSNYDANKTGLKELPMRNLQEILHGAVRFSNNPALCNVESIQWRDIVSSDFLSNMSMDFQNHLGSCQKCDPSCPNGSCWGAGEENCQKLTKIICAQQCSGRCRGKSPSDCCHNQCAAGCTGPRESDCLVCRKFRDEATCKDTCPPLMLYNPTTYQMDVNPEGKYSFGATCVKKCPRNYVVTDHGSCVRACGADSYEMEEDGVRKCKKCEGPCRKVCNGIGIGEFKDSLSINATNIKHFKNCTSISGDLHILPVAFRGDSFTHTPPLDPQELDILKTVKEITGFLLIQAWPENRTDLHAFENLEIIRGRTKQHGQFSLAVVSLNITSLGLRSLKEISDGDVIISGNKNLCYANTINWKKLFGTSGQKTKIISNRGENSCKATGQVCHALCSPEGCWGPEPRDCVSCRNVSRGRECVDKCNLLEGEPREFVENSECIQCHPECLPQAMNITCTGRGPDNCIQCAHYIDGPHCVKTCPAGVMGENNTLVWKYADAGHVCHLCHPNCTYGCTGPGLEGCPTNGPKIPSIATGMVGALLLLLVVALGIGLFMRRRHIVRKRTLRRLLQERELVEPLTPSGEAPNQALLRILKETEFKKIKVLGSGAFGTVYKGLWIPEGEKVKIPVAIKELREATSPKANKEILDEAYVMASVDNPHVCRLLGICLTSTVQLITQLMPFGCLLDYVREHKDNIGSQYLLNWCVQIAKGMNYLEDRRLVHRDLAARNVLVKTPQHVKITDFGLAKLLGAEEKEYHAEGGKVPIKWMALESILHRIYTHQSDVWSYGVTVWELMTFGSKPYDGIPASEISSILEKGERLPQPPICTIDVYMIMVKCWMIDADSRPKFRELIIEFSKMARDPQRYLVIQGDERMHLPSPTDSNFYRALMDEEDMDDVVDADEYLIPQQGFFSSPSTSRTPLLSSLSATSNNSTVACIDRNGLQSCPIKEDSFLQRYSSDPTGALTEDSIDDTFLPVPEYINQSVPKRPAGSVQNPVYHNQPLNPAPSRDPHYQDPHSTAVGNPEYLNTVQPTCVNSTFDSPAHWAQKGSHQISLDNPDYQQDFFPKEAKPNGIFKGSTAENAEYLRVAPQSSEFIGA", "sequence (P40337 whole entry, looked up, stated change not applied)": "as the sequence (P40337 whole entry, stated change not applied) above", "assay": "PROTAC activity at VHL/EGFR Del19 mutant in human HCC827 cells assessed as downregulation of ERK phosphorylation incubated for 72 hrs by Western blot analysis", "type": "cell-based"}, "[20]": {"system": "von Hippel-Lindau disease tumor suppressor/Epidermal growth factor receptor (Homo sapiens), P00533+P40337 [L858R,T790M,C797S]", "assay": "PROTAC activity at VHL/EGFR L858R/T790M/C797S mutant in human H1975-TM cells assessed as downregulation of ERK phosphorylation incubated for 48 hrs by Western blot analysis", "type": "cell-based"}, "[21]": {"system": "von Hippel-Lindau disease tumor suppressor/Epidermal growth factor receptor (Homo sapiens), P00533+P40337 [UNDEFINED MUTATION]", "assay": "PROTAC activity at VHL/EGFR Del19 mutant in human HCC827 cells assessed as induction of EGFR degradation at 100 nM by Western blot analysis", "type": "cell-based", "conditions": "TDE = time-dependent effect"}, "[22]": {"system": "von Hippel-Lindau disease tumor suppressor/Epidermal growth factor receptor (Homo sapiens), P00533+P40337 [UNDEFINED MUTATION]", "assay": "PROTAC activity at VHL/EGFR Del19 mutant in human HCC827 cells assessed as induction of EGFR degradation at 100 nM preincubated with MLN-4924 for 6 hrs followed by compound treatment for 48 hrs by Western blot analysis", "type": "cell-based"}, "HCC827 [23]": {"system": "HCC827", "assay": "Antitumor activity against human HCC827 cells xenografted in BALB/c mouse assessed as tumor growth inhibition at 2.5 mg/kg,ip once daily for 28 days relative to control", "type": "functional", "conditions": "HCC827, 672 h, time 28 day, read-out: TGI"}, "[24]": {"assay": "Toxicity in BALB/c mouse xenografted with human HCC827 cells assessed as change in body weight at 1.25 to 5 mg/kg,ip once daily for 28 days", "type": "organism-based", "conditions": "in vivo, 672 h, dose 1.25-5 mg/kg, time 28 day"}, "HCC827 [25]": {"system": "HCC827", "assay": "Antitumor activity against human HCC827 cells xenografted in BALB/c mouse assessed as increase in EGFR degradation in tumor at 1.25 to 5 mg/kg,ip once daily for 28 days by Western blot analysis", "type": "functional, organism-based", "conditions": "dose 1.25-5 mg/kg, time 28.0 day"}, "NCI-H1975": {"system": "NCI-H1975", "assay": "Antitumor activity against human NCI-H1975 cells xenografted in BALB/c mouse assessed as tumor growth inhibition at 10 mg/kg,ip once daily for 22 days relative to control", "type": "functional", "conditions": "NCI-H1975, 528 h, time 22 day, read-out: TGI"}, "[26]": {"assay": "Antitumor activity against human H1975-TM cells xenografted in BALB/c mouse assessed as tumor growth inhibition at 5 mg/kg,ip once daily for 14 days relative to control", "type": "functional", "conditions": "336 h, time 14 day, read-out: TGI"}, "[27]": {"assay": "Toxicity in BALB/c mouse xenografted with human H1975-TM cells assessed as change in body weight at 5 to 20 mg/kg,ip once daily for 14 days", "type": "organism-based", "conditions": "in vivo, 336 h, dose 5-20 mg/kg, time 14 day"}, "H1975-TM": {"system": "H1975-TM", "assay": "Antitumor activity against human H1975-TM cells xenografted in BALB/c mouse assessed as downregulation of EGFR phosphorylation in tumor at 5 to 20 mg/kg,ip once daily for 14 days by Western blot analysis", "type": "functional, organism-based", "conditions": "dose 5-20 mg/kg, time 14.0 day"}},
  "note": "Active and inactive are the calls of the source. No cut-off for these calls is given here.",
  "data": [
    {"smiles": "CCN(CC)C/C=C/C(=O)Nc1cc2c(Nc3ccc(F)c(Cl)c3)ncnc2cc1OCc1cn(CCCCCCCC(=O)N[C@H](C(=O)N2C[C@H](O)C[C@H]2C(=O)N[C@H](C)c2ccc(-c3scnc3C)cc2)C(C)(C)C)nn1", "values": [
      {"measurement": "IC50", "setting": "HCC827 [1]", "result": 9, "unit": "nM"},
      {"measurement": "IC50", "setting": "[2]", "result": 3240, "unit": "nM"},
      {"measurement": "IC50", "setting": "A-431", "result": "> 20000", "unit": "nM"},
      {"measurement": "k el at 1 h, 1 µM", "setting": "[3]", "result": 0.0003, "unit": "s⁻¹"},
      {"measurement": "k el at 1 h, 1 µM", "setting": "[4]", "result": 0.0001, "unit": "s⁻¹"},
      {"measurement": "half-life at 1 µM", "setting": "[5]", "result": 1.95, "unit": "h"},
      {"measurement": "microsomal CLint at 1 µM", "setting": "[6]", "result": 84, "unit": "µL/min/mg"},
      {"measurement": "microsomal CLint at 1 µM", "setting": "[7]", "result": 17.8, "unit": "µL/min/mg"},
      {"measurement": "microsomal CLint at 1 µM", "setting": "[8]", "result": 11.8, "unit": "µL/min/mg"},
      {"measurement": "Cmax", "setting": "[9]", "result": 7830, "unit": "ng/mL"},
      {"measurement": "Cmax", "setting": "[10]", "result": 656, "unit": "ng/mL"},
      {"measurement": "AUC(0-t) at 24 h", "setting": "[11]", "result": 2350, "unit": "ng·h/mL"},
      {"measurement": "AUC(0-t) at 24 h", "setting": "[12]", "result": 2820, "unit": "ng·h/mL"},
      {"measurement": "MRT last at 24 h", "setting": "[13]", "result": 0.29, "unit": "h"},
      {"measurement": "MRT last at 24 h", "setting": "[14]", "result": 2.86, "unit": "h"},
      {"measurement": "DC50", "setting": "[15]", "result": 17.9, "unit": "nM"},
      {"measurement": "DC50", "setting": "[16]", "result": 250, "unit": "nM"},
      {"measurement": "Emax", "setting": "[17]", "result": 94, "unit": "%"},
      {"measurement": "DC50", "setting": "[18]", "result": 630, "unit": "nM"},
      {"measurement": "Activity", "setting": "[19]", "result": "Dose-Dependent Effect"},
      {"measurement": "Activity", "setting": "[20]", "result": "Dose-Dependent Effect"},
      {"measurement": "Activity", "setting": "[21]", "result": "Tde"},
      {"measurement": "Activity", "setting": "[22]", "result": "inactive"},
      {"measurement": "inhibition in vivo at 2.5 mg/kg", "setting": "HCC827 [23]", "result": 67, "unit": "%"},
      {"measurement": "Activity", "setting": "[24]", "result": "Non-Toxic"},
      {"measurement": "Activity", "setting": "HCC827 [25]", "result": "Active"},
      {"measurement": "inhibition in vivo at 10 mg/kg", "setting": "NCI-H1975", "result": 79, "unit": "%"},
      {"measurement": "inhibition in vivo at 5 mg/kg", "setting": "[26]", "result": 24, "unit": "%"},
      {"measurement": "Activity", "setting": "[27]", "result": "Non-Toxic"},
      {"measurement": "Activity", "setting": "H1975-TM", "result": "Active"}
    ]}
  ]
}
